Measured values as given in patent publication US10150760B2, “Compounds for use in preparing heterocyclic triazole agonists of the APJ receptor” (AMGEN INC., priority 2016, dated 2018).

Biological target: human APJ receptor (Homo sapiens (Human), UniProt P35414)
Assay: [35S]GTPγS binding assay on membranes from CHO cells stably expressing human APJ receptor
Type: biochemical
Conditions: read-out: Activity hAPJ SPA EC50 IP
Summary of the method: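 Agonist-driven [35S]GTPγS (0.2 nM) binding was measured over 90 min at room temperature on human APJ-expressing CHO membranes with bead capture, in buffer containing 3 μM GDP, 200 mM NaCl and 5 mM MgCl2 (pH 7.5). Excess unlabelled GTPγS (100 μM) gave nonspecific signal; EC50 from non-linear fits.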

Sequence of human APJ receptor (P35414 whole entry): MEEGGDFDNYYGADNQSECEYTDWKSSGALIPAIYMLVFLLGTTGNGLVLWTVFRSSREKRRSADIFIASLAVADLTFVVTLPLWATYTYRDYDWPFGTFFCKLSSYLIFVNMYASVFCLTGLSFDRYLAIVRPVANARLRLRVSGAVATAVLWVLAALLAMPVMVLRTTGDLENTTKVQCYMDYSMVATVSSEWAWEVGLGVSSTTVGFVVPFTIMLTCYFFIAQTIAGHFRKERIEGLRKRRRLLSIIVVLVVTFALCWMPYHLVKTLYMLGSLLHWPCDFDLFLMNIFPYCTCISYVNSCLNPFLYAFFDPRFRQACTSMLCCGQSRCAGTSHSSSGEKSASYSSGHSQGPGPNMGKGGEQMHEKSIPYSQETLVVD

SMILES | EC50 [nM]
COCC1(n2c(NS(=O)(=O)[C@@H](C)[C@H](OC)c3ncc(Cl)cn3)nnc2[C@H]2CC[C@@H](C)O2)CC1 (single isomer, unassigned) [Example 286.0, (1R,2S)-1-(5-chloropyrimidin-2-yl)-1-methoxy-N-(4-(1-(methoxymethyl)cyclopropyl)-5-((2S,5S)-5-methyltetrahydrofuran-2-yl)-4H-1,2,4-triazol-3-yl)propane-2-sulfonamide or (1R,2S)-1-(5-chloropyrimidin-2-yl)-1-methoxy-N-(4-(1-(methoxymethyl)cyclopropyl)-5-((2R,5R)-5-methyltetrahydrofuran-2-yl)-4H-1,2,4-triazol-3-yl)propane-2-sulfonamide] | 1.4
COCCn1c(NS(=O)(=O)[C@@H](C)[C@H](OC)c2ncc(Cl)cn2)nnc1[C@H]1CCC(C)(C)O1 (single isomer, unassigned) [Example 287.0, (1R,2S)-1-(5-chloropyrimidin-2-yl)-N-(5-((R)-5,5-dimethyltetrahydrofuran-2-yl)-4-(2-methoxyethyl)-4H-1,2,4-triazol-3-yl)-1-methoxypropane-2-sulfonamide or (1R,2S)-1-(5-chloropyrimidin-2-yl)-N-(5-((S)-5,5-dimethyltetrahydrofuran-2-yl)-4-(2-methoxyethyl)-4H-1,2,4-triazol-3-yl)-1-methoxypropane-2-sulfonamide] | 860
COCCn1c(NS(=O)(=O)[C@@H](C)[C@H](OC)c2ncc(Cl)cn2)nnc1[C@H]1CCC(C)(C)O1 (single isomer, unassigned) [Example 288.0, (1R,2S)-1-(5-chloropyrimidin-2-yl)-N-(5-((R)-5,5-dimethyltetrahydrofuran-2-yl)-4-(2-methoxyethyl)-4H-1,2,4-triazol-3-yl)-1-methoxypropane-2-sulfonamide or (1R,2S)-1-(5-chloropyrimidin-2-yl)-N-(5-((S)-5,5-dimethyltetrahydrofuran-2-yl)-4-(2-methoxyethyl)-4H-1,2,4-triazol-3-yl)-1-methoxypropane-2-sulfonamide] | 410
COCC1(n2c(NS(=O)(=O)[C@@H](C)[C@H](OC)c3ncc(Cl)cn3)nnc2[C@H]2CCC(C)(C)O2)CC1 (single isomer, unassigned) [Example 289.0, (1R,2S)-1-(5-chloropyrimidin-2-yl)-N-(5-((R)-5,5-dimethyltetrahydrofuran-2-yl)-4-(1-(methoxymethypcyclopropyl)-4H-1,2,4-triazol-3-yl)-1-methoxypropane-2-sulfonamide or (1R,2S)-1-(5-chloropyrimidin-2-yl)-N-(5-((S)-5,5-dimethyltetrahydrofuran-2-yl)-4-(1-(methoxymethypcyclopropyl)-4H-1,2,4-triazol-3-yl)-1-methoxypropane-2-sulfonamide] | 1100
COCC1(n2c(NS(=O)(=O)[C@@H](C)[C@H](OC)c3ncc(Cl)cn3)nnc2[C@H]2CCC(C)(C)O2)CC1 (single isomer, unassigned) [Example 290.0, (1R,2S)-1-(5-chloropyrimidin-2-yl)-N-(5-((R)-5,5-dimethyltetrahydrofuran-2-yl)-4-(1-(methoxymethypcyclopropyl)-4H-1,2,4-triazol-3-yl)-1-methoxypropane-2-sulfonamide or (1R,2S)-1-(5-chloropyrimidin-2-yl)-N-(5-((S)-5,5-dimethyltetrahydrofuran-2-yl)-4-(1-(methoxymethyl)cyclopropyl)-4H-1,2,4-triazol-3-yl)-1-methoxypropane-2-sulfonamide] | 23
COc1ncnc(OC)c1-n1c(NS(=O)(=O)[C@@H](C)[C@@H](OC(C)C)c2ncc(Cl)cn2)nnc1[C@H]1CCOC1 (single isomer, unassigned) [Example 291.0, (1S,2S)-1-(5-chloropyrimidin-2-yl)-N-(4-(4,6-dimethoxypyrimidin-5-yl)-5-((R)-tetrahydrofuran-3-yl)-4H-1,2,4-triazol-3-yl)-1-isopropoxypropane-2-sulfonamide or (1S,2S)-1-(5-chloropyrimidin-2-yl)-N-(4-(4,6-dimethoxypyrimidin-5-yl)-5-((S)-tetrahydrofuran-3-yl)-4H-1,2,4-triazol-3-yl)-1-isopropoxypropane-2-sulfonamide] | 5.2
COc1ncnc(OC)c1-n1c(NS(=O)(=O)[C@@H](C)[C@@H](OC(C)C)c2ncc(Cl)cn2)nnc1[C@H]1CCOC1 (single isomer, unassigned) [Example 292.0, (1S,2S)-1-(5-chloropyrimidin-2-yl)-N-(4-(4,6-dimethoxypyrimidin-5-yl)-5-((R)-tetrahydrofuran-3-yl)-4H-1,2,4-triazol-3-yl)-1-isopropoxypropane-2-sulfonamide or (1S,2S)-1-(5-chloropyrimidin-2-yl)-N-(4-(4,6-dimethoxypyrimidin-5-yl)-5-((S)-tetrahydrofuran-3-yl)-4H-1,2,4-triazol-3-yl)-1-isopropoxypropane-2-sulfonamide] | 18
COc1cccc(OC)c1-n1c(NS(=O)(=O)[C@@H](C)[C@H](OC)c2ncc(Cl)cn2)nnc1[C@H]1CC(=O)N(C)C1 (single isomer, unassigned) [Example 293.0, (1R,2S)-1-(5-chloropyrimidin-2-yl)-N-(4-(2,6-dimethoxyphenyl)-5-((R)-1-methyl-5-oxopyrrolidin-3-yl)-4H-1,2,4-triazol-3-yl)-1-methoxypropane-2-sulfonamide or (1R,2S)-1-(5-chloropyrimidin-2-yl)-N-(4-(2,6-dimethoxyphenyl)-5-((S)-1-methyl-5-oxopyrrolidin-3-yl)-4H-1,2,4-triazol-3-yl)-1-methoxypropane-2-sulfonamide] | 100
COc1cccc(OC)c1-n1c(NS(=O)(=O)[C@@H](C)[C@H](OC)c2ncc(Cl)cn2)nnc1[C@@H]1CC(=O)N(C)C1 (single isomer, unassigned) [Example 294.0, (1R,2S)-1-(5-chloropyrimidin-2-yl)-N-(4-(2,6-dimethoxyphenyl)-5-((R)-1-methyl-5-oxopyrrolidin-3-yl)-4H-1,2,4-triazol-3-yl)-1-methoxypropane-2-sulfonamide or (1R,2S)-1-(5-chloropyrimidin-2-yl)-N-(4-(2,6-dimethoxyphenyl)-5-((S)-1-methyl-5-oxopyrrolidin-3-yl)-4H-1,2,4-triazol-3-yl)-1-methoxypropane-2-sulfonamide] | 270
CO[C@H](c1ncc(Cl)cn1)[C@H](C)S(=O)(=O)Nc1nnc([C@H]2CCOC2)n1C(C)C (single isomer, unassigned) [Example 297.0, (1R,2S)-1-(5-chloropyrimidin-2-yl)-N-(4-isopropyl-5-((R)-tetrahydrofuran-3-yl)-4H-1,2,4-triazol-3-yl)-1-methoxypropane-2-sulfonamide or (1R,2S)-1-(5-chloropyrimidin-2-yl)-N-(4-isopropyl-5-((S)-tetrahydrofuran-3-yl)-4H-1,2,4-triazol-3-yl)-1-methoxypropane-2-sulfonamide] | 1470
CO[C@H](c1ncc(Cl)cn1)[C@H](C)S(=O)(=O)Nc1nnc([C@H]2CCOC2)n1C(C)C (single isomer, unassigned) [Example 298.0, (1R,2S)-1-(5-chloropyrimidin-2-yl)-N-(4-isopropyl-5-((R)-tetrahydrofuran-3-yl)-4H-1,2,4-triazol-3-yl)-1-methoxypropane-2-sulfonamide or (1R,2S)-1-(5-chloropyrimidin-2-yl)-N-(4-isopropyl-5-((S)-tetrahydrofuran-3-yl)-4H-1,2,4-triazol-3-yl)-1-methoxypropane-2-sulfonamide] | 1890
